Data taken from publication PMC9791066, “Investigations into the antibacterial effects and potential mechanism of gambogic acid and neogambogic acid” (Frontiers in Microbiology, 2022).
≈ marks a conversion by molar mass, not a printed value. Where two headings read alike, the source gives them in different places.

Key:
[1] = tested on: clinical strains of S. aureus, E. faecalis, L. monocytogenes; assay: MIC against clinical isolates; assay type: cell-based; conditions: 10 more clinical strains of each species
From the text: Enterococcus faecalis ATCC29212 and Staphylococcus aureus ATCC29213 were purchased from the […]. Methicillin-resistant Staphylococcus aureus (MRSA), Listeria monocytogenes ATCC19117, Escherichia coli ATCC25922, Escherichia coli BAS849, DH5α and BL21 were from Lin lab storage. The clinical strains used in this study were isolated and identified from Affiliated Hospital of Nanjing University of Chinese Medicine and Nanjing Drum Tower Hospital, China. All the bacteria strains were routinely cultured in Luria-Bertani (LB) broth media (1% tryptone, 0.5% yeast extract, and 1% NaCl) at 37°C, except as noted.
(§1) Antibacterial activities were performed by examining the minimal inhibitory concentrations (MICs), which was determined by a microtiter broth dilution method as previously described ([Cotsonas King and Wu, 2009]), with minor modifications. Briefly, 96-well plates (Corning) were inoculated with 100 μl of LB broth per well containing 7 × 10^5 CFU/mL bacteria, followed by adding 100 μl of LB broth containing two-fold serial dilutions of the test compounds. Tetracycline (Tet) and ampicillin (Amp) and viridicatumtoxins were used as the positive controls. After 18 h of incubation, the MIC was determined to be the lowest concentration without visible bacterial growth. The results were the averages of at least three biological replicates.

MRSA = assay: MIC, microtiter broth dilution; assay type: cell-based, Staphylococcus aureus; conditions: Staphylococcus aureus, MRSA, 18 h
Protocol: as §1, with “Tetracycline (Tet) and ampicillin (Amp) and viridicatumtoxins were used as the positive controls.” left out

[2] = target: T1, Enterococcus faecalis UPPS (EfaUPPS), wild-type (Enterococcus faecalis, UniProt Q831K9); assay: UPPS inhibition assay (enzyme-coupled fluorescence), wild-type EfaUPPS; assay type: biochemical
T1 construct: His tag; made in house; host or cells: E. coli BL21(DE3)
Protocol: Enterococcus faecalis undecaprenyl pyrophosphate synthase (EfaUPPS) recombination studies were performed as previously described ([Li et al., 2020]). Briefly, the full-length gene sequence of EfaUPPS was cloned into the NdeI and HindIII sites of pET28a vector under control of T7 promoter. The sequenced plasmid was then transformed into E. coli strain BL21(DE3) (Invitrogen) and the transformants were grown on LB broth media supplemented with 50 μg/mL kanamycin. A single colony of the transformant was then cultured in 100 mL of LB broth containing 50 μg/mL kanamycin overnight. The overnight cultures were inoculated into 1 L of LB broth containing 50 μg/mL kanamycin and continue to culture until reaching an OD600 of 0.8. Upon reaching the optimal growth states, the cultures were induced by addition of 1 mM isopropyl-β-D-thiogalactoside (IPTG), and then cultured at 16°C for 16 h. […]
The UPPS inhibition assay was carried out by measuring the fluorescence of the reaction mixture in a black 96-well microtiter plate (Corning, United States). […] The UPPS inhibitory activity was performed by calculating the fluorescence percentage through determining the fluorescence absorbance of reaction mixture at 316 and 456 nm. […]

Escherichia coli DH5α = assay: microbe, parasite or virus in culture; assay type: cell-based; conditions: Escherichia coli, 18 h
Protocol: as §1, with “Tetracycline (Tet) and ampicillin (Amp) and viridicatumtoxins were used as the positive controls.” left out

[3] = tested on: Escherichia coli BL21 (DE3); assay: microbe, parasite or virus in culture; assay type: cell-based; conditions: Escherichia coli, 18 h
Protocol: as §1, with “Tetracycline (Tet) and ampicillin (Amp) and viridicatumtoxins were used as the positive controls.” left out

Escherichia coli BAS 849 = assay: microbe, parasite or virus in culture; assay type: cell-based; conditions: Escherichia coli
Protocol: as §1, with “Tetracycline (Tet) and ampicillin (Amp) and viridicatumtoxins were used as the positive controls.” left out

EfaUPPS (L146A) = target: T2, EfaUPPS (L146A) (Enterococcus faecalis, UniProt Q831K9, L152A); assay: Microscale thermophoresis binding assay, EfaUPPS L146A; conditions: MST, no binding
T2 construct: His tag; made in house; host or cells: E. coli BL21(DE3)
Protocol: To characterize the binding affinity between EfaUPPS and GA or NGA, the MST binding assay was performed as previously described ([Lin et al., 2020]). In brief, His-tagged EfaUPPS and site-directed mutated EfaUPPS were labeled with the NT- 647-NHS dye using the Monolith NTTM Protein Labeling Kit RED-NHS (NanoTemper Technologies). Two-fold serially diluted GA or NGA was mixed with 10 nM of labeled EfaUPPS or its derivatives in 10 μl of binding buffer (137 mM NaCl, 2.7 mM KCl, 10 mM Na2HPO4, 1.8 mM KH2PO4, and 0.05% Tween-20, pH 7.8), incubated for 15 min, at room temperature. And then, loaded the mixtures into NT.115 premium coated capillaries (NanoTemper Technologies). MST trace signals were collected from the IR laser on to off for about 20 s, under the 5% LED power and high MST power mode. The change of molecular thermophoresis was monitored by standardized fluorescence value Fnorm, and the binding curve was plotted according to the values of Fnorm. The formed complex affinity was analyzed by MO Affinity Analysis software version 2.3. Apparent dissociation constants (Kd) were calculated using nonlinear fitting assuming one specific binding site with the GraphPad Prism 7 software with the following formula: Y = B^∗Max X/KD + X.
(^∗ where BMax is the maximum theoretical specific binding; here BMax = 1).

T2 sequence (Q831K9 whole entry L152A): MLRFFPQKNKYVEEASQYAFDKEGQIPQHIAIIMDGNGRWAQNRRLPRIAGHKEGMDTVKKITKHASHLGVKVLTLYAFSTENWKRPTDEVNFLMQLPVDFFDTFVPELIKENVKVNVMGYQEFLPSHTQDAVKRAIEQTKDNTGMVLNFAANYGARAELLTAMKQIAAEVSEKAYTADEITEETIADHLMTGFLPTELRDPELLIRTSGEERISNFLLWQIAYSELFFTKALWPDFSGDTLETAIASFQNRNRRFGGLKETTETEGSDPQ
T1 sequence (Q831K9 whole entry): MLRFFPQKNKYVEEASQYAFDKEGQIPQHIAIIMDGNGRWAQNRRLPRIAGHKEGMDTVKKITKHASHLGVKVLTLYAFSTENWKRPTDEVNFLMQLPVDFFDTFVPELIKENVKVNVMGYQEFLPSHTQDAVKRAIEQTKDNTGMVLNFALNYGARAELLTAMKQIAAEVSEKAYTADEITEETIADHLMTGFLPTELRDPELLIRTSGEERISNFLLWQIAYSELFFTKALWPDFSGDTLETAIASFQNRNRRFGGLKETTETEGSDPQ

Row | Compound | growth inhibitory activity (MICs) against clinical strains [1] | MIC (MRSA) | IC50 [2] | MIC (Escherichia coli DH5α) | MIC [3] | MIC (Escherichia coli BAS 849; BAS849, 18 h) | Kd (EfaUPPS (L146A)) | MIC (MRSA; LB broth, read-out: MIC) | IC50 ([2]; WT EfaUPPS, 35 μM IPP, 5 μM FPP, read-out: IC50) | MIC (Escherichia coli DH5α; LB broth, read-out: MIC) | MIC ([3]; LB broth, read-out: MIC) | MIC (Escherichia coli BAS 849; BAS849, LB broth, 18 h, strain with deficient outer-membrane structure, read-out: MIC)
1 | CC(C)=CCC[C@]1(C)CC(O)c2c(O)c3c(c(CC=C(C)C)c2O1)O[C@]12C(=C[C@@H]4C[C@H]1C(C)(C)O[C@@]2(C/C=C(/C)C(=O)O)C4=O)C3=O (some centres unmarked) [NGA, neogambogic acid] | high potency in growth inhibitory activity | 4 µg/mL (≈ 6.18 µM) | 3.07 µM | > 64 µg/mL | > 64 µg/mL | 8 µg/mL (≈ 12.4 µM) | > 50000 µM | – | – | – | – | –
2 | CC(C)=CCC[C@]1(C)C=Cc2c(O)c3c(c(CC=C(C)C)c2O1)O[C@]12C(=C[C@@H]4C[C@H]1C(C)(C)O[C@@]2(C/C=C(/C)C(=O)O)C4=O)C3=O [GA, gambogic acid] | high potency in growth inhibitory activity | – | – | – | – | – | > 50000 µM | 4 µg/mL (≈ 6.36 µM) | 3.08 µM | > 64 µg/mL | > 64 µg/mL | 8 µg/mL (≈ 12.7 µM)
